Test results published in article PMC7509852 (Biochemistry, 2020).

How the values were obtained:
Cj1427 [1] = biological target: T1, Cj1427 (Campylobacter jejuni, UniProt Q0P8I7); test: UV-vis spectrum of bound cofactor; assay type: biochemical; settings: NAD+-bound enzyme; 2.0 mM substrate; 50 mM HEPES/KCl pH 7.4, 30 °C
Cj1427 [2] = biological target: T1, Cj1427; test: UV-vis loss of […] nm band; assay type: biochemical; settings: NADH-bound enzyme; 2.0 mM substrate; 50 mM HEPES/KCl pH 7.4, 30 °C

T1 sequence (Q0P8I7 whole entry): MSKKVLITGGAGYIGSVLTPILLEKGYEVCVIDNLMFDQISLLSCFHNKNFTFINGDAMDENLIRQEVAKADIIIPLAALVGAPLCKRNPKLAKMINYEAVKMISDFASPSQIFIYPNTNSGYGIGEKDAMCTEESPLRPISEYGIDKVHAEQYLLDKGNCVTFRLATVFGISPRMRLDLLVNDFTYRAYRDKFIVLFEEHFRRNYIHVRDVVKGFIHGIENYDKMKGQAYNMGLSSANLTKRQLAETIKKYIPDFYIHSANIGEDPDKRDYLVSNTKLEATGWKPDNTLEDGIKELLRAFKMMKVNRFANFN

| Compound | UV-vis spectrum of bound cofactor (Cj1427 [1]) | UV-vis loss of 350 nm band; ion exchange chromatography (Cj1427 [2]) |
| --- | --- | --- |
| O=C(O)CC[C@H](O)C(=O)O [L-2-hydroxyglutarate] | Cj1427 with bound NAD^+ catalyzes the oxidation of L-2-hydroxyglutarate to α-ketoglutarate and NADH |  |
| O=C(O)CCC(=O)C(=O)O [α-ketoglutarate] |  | initially bound NADH was converted to NAD^+ in the presence of α-ketoglutarate |
